From publication PMC10252837, “A Novel Time-Resolved Fluorescence Resonance Energy Transfer Assay for the Discovery of Small-Molecule Inhibitors of HIV-1 Tat-Regulated Transcription” (International Journal of Molecular Sciences, 2023)
Where two headings read alike, the source gives them in different places.

What was measured:
HIV-1NL4-3 = experiment: HIV-1 infectivity in TZM-bl cells (LTR-driven F-Luc); assay type: cell-based; details: for IC50: read-out: IC50 of Infectivity
Protocol: (§1) (A) (Upper panel) Doxycycline (Dox)-inducible Tat-expressing bl-DTR cells cultured in 96-well plates treated with two-fold serial dilutions of each compound in the presence of Dox (50 ng/mL). At 24 h after treatment, the activity of firefly luciferase (F-Luc), indicating Tat activity, was determined as described in the Materials and Methods section. (Bottom panel) TZM-bl cells were treated with two-fold serial dilutions of the indicated compound and then infected with the HIV-1NL4-3 strain at a multiplicity of infection (MOI) of 1. At 24 h after infection, the viral infectivity and cell viability were determined as described in the Materials and Methods section. […] (B) 2 × 10^5 TZM-bl cells growing in 6-well plates were infected with HIV-1 (MOI = 1), transfected with a Tat-expressing plasmid (2 μg) or treated with PMA ([…]) upon indicated compounds at indicated concentrations, respectively. At 24 h after treatment, LTR promoter activity was determined via a Bright-Glo Luciferase Assay Kit. The relative activities are represented as the mean ± SD (n = 3) compared with the DMSO vesicle. (C) The biotinylated TAR RNA (2 nM) was incubated with ARM peptide (100 nM) in the presence of increasing amounts of the hit compound and separated on a 3–12% native polyacrylamide gel. The mobility of biotinylated TAR RNA was detected by chemiluminescence.
(§2) To determine the inhibitory effect of hit compounds on HIV-1 infection, we used TZM-bl cells (also referred to as JC53BL-13), which express HIV-1 receptors and contain the LTR-driven F-Luc gene controlled by HIV-1 infection, as described previously but with some minor modifications. Briefly, 1 × 10^4 TZM-bl cells cultured on 96-well plates were treated in triplicate wells with 1:2 serially diluted compounds at concentrations ranging from 0 to 12.5 µM. Subsequently, the cells were infected with HIV-1NL4-3 virus obtained from the transfection of 293T cells at a multiplicity of infection (MOI) of 1. At 24 h after infection, the inhibitory effect of the hit compounds on infectivity was determined using the Bright-Glo Luciferase Assay Kit (Promega). The dose–response data are expressed as a relative percentage compared to the DMSO control (vehicle). The inhibitory effects of the hit compounds on HIV-1 replication were determined as previously described. Briefly, 4 × 10^5 PBMCs pre-activated with phytohemagglutinin M (PHA-M) were washed with fresh media and then infected with HIV-1NL4-3 or HIV-1AD8 at an MOI of 0.1 by spinoculation for 2 h. After infection, the cells were treated with hit compounds at the indicated concentrations at 3–5 days after treatment, and the inhibitory effect of hit compounds on viral replication was determined by the titration of virions from the cell supernatant using a p24 […]™ Assay Kit (PerkinElmer) according to the manufacturer’s instructions. Cell viability was determined using resazurin-based PrestoBlue™ cell viability reagent (Thermo Fisher Scientific, Waltham, MA, USA) according to the manufacturer’s instructions. The data are presented as relative percentages compared to the DMSO control (vehicle). The experiments were performed in triplicate.

[1] = tested on: Tat activity (Tat-induced viral transcription); experiment: microbe, parasite or virus in culture; assay type: cell-based, HIV-1; details: for IC50: read-out: IC50 of Tat Activity
Protocol: as §1
The inhibitory effect of hit compounds on Tat-mediated transcription was determined using doxycycline (Dox)-inducible Tat-expressing TZM-bl cells that express the LTR-driven firefly luciferase (F-Luc) gene under the control of Tat upon Dox treatment, as described previously but with minor modifications. In brief, 1 × 10^4 of the cells were cultured in 96-well plates, treated with compounds at a concentration of 10 µM (in the second round of screening), and then treated with Dox (final concentration: 50 ng/mL). After 24 h, the inhibitory effect of the hit compounds on Tat activity was determined by measuring F-Luc activity using a Bright-Glo Luciferase Assay Kit (Promega, Madison, WI, USA). For the dose–response assay, cells cultured in 100 μL medium were treated with 50 μL of 1:2 serially diluted compounds at concentrations ranging from 0 to 12.5 µM and then treated with 50 μL of Dox (final concentration: 50 ng/mL). At 24 h post-treatment, the F-Luc activity was determined as described above. All luminescence assays were carried out in a SpectraMax Paradigm Microplate Reader (Molecular Devices, San Jose, CA, USA), and the data were expressed as a relative percentage (%) compared to the DMSO control (vehicle) in the presence of Dox. The experiments were performed in triplicate.

HIV-1NL4-3 (X4-tropic) = experiment: HIV-1 replication assay in PBMCs (p24), HIV-1NL4-3; assay type: cell-based; details: PHA-preactivated PBMCs, MOI 0.1, 72 h; 460-G06 at 12.5-100 nM
Protocol: (§3) Figure 6 Phytohemagglutinin-preactivated peripheral blood mononuclear cells were infected with HIV-1NL4-3 (A) or HIV-1AD8 (B) at an MOI of 0.1 for 2 h and then treated with compounds at indicated concentrations for 72 h. […] The data are expressed as the mean ± SD (n = 3). * p < 0.05 indicates a comparison with the cells treated with DMSO (vehicle). ARVs, anti-retroviral drugs; EFV, efavirenz; DOL, dolutegravir; AZT, azidothymidine.
(§4) The experiments were performed in triplicate.

TAR RNA = experiment: RNA gel mobility shift assay (biotinylated TAR RNA and ARM peptide); assay type: binding, HIV-1; details: 2 nM biotinylated TAR RNA, 100 nM ARM peptide
Protocol: To determine the inhibitory effect of hit compounds on the Tat (ARM)-TAR RNA interaction, a gel shift assay was carried out using the LightShift Chemiluminescent RNA EMSA Kit (Thermo Scientific) according to the manufacturer’s instructions, but with minor modifications suitable for our experiment. Briefly, 2 nM of 5′-biotinylated TAR RNA (nt 31) and 100 nM of ARM peptide were incubated with increasing amounts of hit compounds in the 1× REMSA binding buffer (10 mM HEPES pH 7.5, 10 mM MgCl2, 5 mM KCl, 1 mM DTT, and v/v 5 % glycerol) supplemented with 8 units/reaction of RNase OUT (Invitrogen) (final: 20 µL) at 20 °C for 20 min. Subsequently, the reaction was separated on a 3–12% native gradient PAGE gel. The RNA was then transferred to a nylon membrane to detect the mobility-shifted biotinylated TAR RNA using StAV-horseradish peroxidase conjugate. Chemiluminescence was detected using a GBox Chemi chemi-luminometer (Syngene, Fredrick, MD, USA).

HIV-1AD8 (R5-tropic) = experiment: HIV-1 replication assay in PBMCs (p24), HIV-1AD8; assay type: cell-based; details: PHA-preactivated PBMCs, MOI 0.1, 72 h; 460-G06 at 12.5-100 nM
Protocol: as §3, §4

TZM-bl cells = experiment: in vitro; details: TZM-bl cells
Protocol: as §1
as §2, with “Subsequently, the cells were infected with HIV-1NL4-3 virus obtained from the transfection of 293T cells at a multiplicity of infection (MOI) of 1.” left out, “Briefly, 4 × 10^5 PBMCs pre-activated with phytohemagglutinin M (PHA-M) were washed with fresh media and then infected with HIV-1NL4-3 or HIV-1AD8 at an MOI of 0.1 by spinoculation for 2 h.” left out, “The data are presented as relative percentages compared to the DMSO control (vehicle). The experiments were performed in triplicate.” left out

[2] = tested on: Tat (ARM)-TAR RNA interaction; details: 10-fold excess competitor, 50 nM analytes
Protocol: To test whether our assay is applicable for screening specific inhibitors of the Tat-TAR RNA interaction, inhibition assays were performed with known inhibitors of the Tat-TAR RNA interaction. […] A dose–response competition assay was conducted at inhibitor concentrations of 0–100 μM to determine their inhibitory curves in our assay. […] Additionally, a dose-responsive competition assay using RNA fragments was performed to validate the specificity of the assay.
Data are expressed as the mean ± SD (n = 3) compared to a control lacking an RNA competitor.
The indicated concentrations of ARM and Cy5-TAR RNA fragments were incubated in 20 μL of 1× LANCE ultra assay buffer in 384-well microtiter plates with or without inhibitor (competitor) for 30 min at 20 °C in the dark. […] The reaction was performed in a final volume of 25 μL. Small volumes of the reaction solution were added automatically using Assist-Plus (Integra Bioscience, Zisers, Switzerland). After adding all the assay components, the plates were sealed with a clear cover. The ARM-TAR RNA interaction signal was measured in an EnSight multimode plate reader (PerkinElmer) using the LANCE protocol of the time-resolved fluorescence (TRF) mode in the Kaleido software (PerkinElmer), according to the manufacturer’s protocol. Briefly, the excitation light was directed to the donor (Eu) from the Xenon flash lamp at 320 nm selected by an optical filter, and then, an integration time of 100 μs and a delay time of 70 μs were provided to remove short-lived background signals; subsequently, two emission lights were detected at 615 nm for the donor (Eu) and 665 nm for the acceptor (Cy5). The TRF was measured from the top using an excitation filter and emission monochromators in a single measurement mode. The TR-FRET output signal was expressed as the emission ratio of acceptor/donor (665/615 nm × 1000) fluorescence counts. The fold activity of the TR-FRET signal for ARM-TAR RNA interaction was calculated compared to the control reaction lacking the ARM peptide.

[3] = TZM-bl cells, HIV-1NL4-3 MOI 1, 24 h, 0-12.5 μM
[4] = bl-DTR cells, Dox 50 ng/mL, 24 h, F-Luc, 0-12.5 μM

Compound | IC50 (HIV-1NL4-3; [3]) [µM] | dose response of Tat activity (F-Luc), in words ([1]; 0-12.5 μM, bl-DTR cells) | IC50 [1, 4] [µM] | further results
O=C(O)C1CCCc2sc(C=Cc3cc(Cl)c4c(c3)OCCO4)nc21 (centres unmarked) [Hit 458-F08, 2-(2-(8-Chloro-2,3-dihydrobenzo[b][1,4]dioxin-6-yl)vinyl)-4,5,6,7-tetrahydrobenzo[d]thiazole-4-carboxylic acid] | 1.29 ± 0.384 | gradual dose-responsive inhibitory effect on Tat activity | – | –
Cc1onc(-c2ccccn2)c1C(=O)Nc1ncc(C2CCNCC2)s1 [Hit 459-G07, 5-Methyl-N-(5-(piperidin-4-yl)thiazol-2-yl)-3-(pyridin-2-yl)isoxazole-4-carboxamide] | – | gradual dose-responsive inhibitory effect on Tat activity | 3.93 ± 0.338 | –
N=c1n(Cc2ccc(F)cc2F)c2ccccc2n1CC(O)Cn1c(-c2ccc(C(F)(F)F)cc2)noc1=O (centres unmarked) [Hit 460-F06, 4-(3-(3-(2,4-Difluorobenzyl)-2-imino-2,3-dihydro-1H-benzo[d]imidazol-1-yl)-2-hydroxypropyl)-3-(4-(trifluoromethyl)phenyl)-1,2,4-oxadiazol-5(4H)-one] | – | – | 3.2 ± 0.438 | –
CC(C)C(CNc1nc(-c2ccsc2)nc2ccccc12)N1CCN(C)CC1 (centres unmarked) [Hit 461-H04, N-(3-Methyl-2-(4-methylpiperazin-1-yl)butyl)-2-(thiophen-3-yl)quinazolin-4-amine] | – | gradual dose-responsive inhibitory effect on Tat activity | 10.1 ± 2.73 | –
Cc1ccc(-c2csc3ncnc(NCCCc4n[nH]c(N)c4C#N)c23)cc1 [Hit 463-B11, 5-Amino-3-(3-(5-p-tolylthieno[2,3-d]pyrimidin-4-ylamino)propyl)-1H-pyrazole-4-carbonitrile] | 5.03 ± 0.31 | gradual dose-responsive inhibitory effect on Tat activity | 6.82 ± 1.88 | –
Cc1nn2c(nc(NC3CCCN(C)C3)c3ccccc32)c1Cl (centres unmarked) [Hit 463-H08, 3-chloro-2-methyl-N-(1-methylpiperidin-3-yl)pyrazolo[1,5-a]quinazolin-5-amine] | – | gradual inhibition of F-Luc activity | – | IC50 (HIV-1NL4-3; Human immunodeficiency virus 1, TZM-bl, 24 h): 8.05 ± 0.488 µM; SI (selectivity index) (HIV-1NL4-3; TZM-bl cells): >1.552; inhibition of viral replication, in words (HIV-1NL4-3 (X4-tropic)): less inhibitory effect on viral replication; IC50 ([1]; Human immunodeficiency virus 1, 24 h): 2.37 ± 0.16 µM; Kd (TAR RNA): ~1000 µM; dissociation of ARM from TAR RNA, in words (TAR RNA): relatively less dissociation effect; inhibition of viral replication, in words (HIV-1AD8 (R5-tropic)): less inhibitory effect on viral replication
Cc1ccc(Nc2cc3c(n[n+]([O-])n3CCCN3CCCCC3)c3c2C(=O)c2ccccc2C3=O)cc1 [Hit 464-A09, 6,11-Dioxo-3-(3-(piperidin-1-yl)propyl)-5-(p-tolylamino)-6,11-dihydro-3H-anthra[1,2-d][1,2,3]triazole 2-oxide] | 2.03 ± 0.132 | gradual dose-responsive inhibitory effect on Tat activity | 2.27 ± 0.518 | inhibitory effect on HIV-1, in words (HIV-1NL4-3; 3.13 μM): strong inhibitory effect; toxicity, in words (TZM-bl cells; 6.25 μM): sudden severe toxicity; CC50 (TZM-bl cells; concentration that reduces cell viability by 50%): 3.36 ± 0.16 µM; inhibitory effect on Tat, in words ([1]; 3.13 μM): strong inhibitory effect
GISYGDKKDDQEERA [mt ARM] | – | – | – | TR-FRET signal in peptide/protein competition assay, in words [2]: neither mt ARM nor BSA affected their interaction signals
